Experiments:
[1] = system: TNF-α secretion by LPS-treated THP1 cells; experiment: Lipopolysaccharide-activated THP1 cell TNF production assay; type: cell-based; details: Homo sapiens, THP-1, 3 hours, read-out: IC50 in the THP-1 cellular TNF production assay
Procedure: Lipopolysaccharide-Activated THP1 Cell TNF Production Assay
THP1 cells were resuspended in fresh THP1 media (RPMI 1640, 10% heat-inactivated FBS, 1×PGS, 1×NEAA, plus 30 μM βME) at a concentration of 1.5×10^6 cells per mL. One hundred microliters of cells per well were plated in a polystyrene 96-well tissue culture plate. 1.5 micrograms per mL of bacterial LPS was prepared in THP1 media and transferred to the first 11 columns of a 96-well polypropylene plate. Column 12 contained only THP1 media for the LO control. Compounds were dissolved in 100% DMSO and serially diluted 3 fold in a polypropylene 96-well microtiter plate (drug plate). Columns 6 and 12 were reserved as controls (HI controls and LO controls respectively) and contained only DMSO. 10 μL of LPS followed by one microliter of inhibitor compound from the drug plate was transferred to the cell plate. The treated cells were induced to synthesize and secrete TNF-α in a 37° C. humidified incubator with 5% CO2 for 3 hours. Fifty microliters of conditioned media was transferred to a 96-well MULTI-ARRAY™ 96-well small spot plate—custom coated with MAB610 containing 100 μL of 2× Read Buffer P supplemented with 0.34 nM AF210NA polyclonal Ab labeled with ruthenium (MSD-Sulfo-TAG™—NHS ester). After an overnight incubation at room temperature with shaking, the reaction was read on the Sector Imager™ 6000. […] The amount of secreted TNF-α in the presence of AMG compounds compared with that in the presence of DMSO vehicle alone (HI control) was calculated using the formula: % control (POC)=(cpd−average LO)/(average HI−averageLO)*100. Data (consisting of POC and inhibitor concentration in μM) was fitted to a 4-parameter equation (y=A+((B−A)/(1+((x/C)^D))), where A is the minimum y (POC) value, B is the maximum y (POC), C is the x (cpd concentration) at the point of inflection and D is the slope factor) using a Levenburg-Marquardt non-linear regression algorithm.

[2] = target: recombinant human p38α (Homo sapiens, UniProt Q16539); experiment: Purified and activated recombinant human p38α HTRF assay; type: biochemical; details: 1 nM p38α, 50 μM ATP, 100 nM GST-ATF2-Avitag, read-out: p3a IC550
Procedure: Purified and Activated Recombinant Human p38α Assay
• Kinase Reaction Buffer: Kinase reaction buffer for p38α HTRF assays consists of 50 mM Tris-pH 7.5, 5 mM MgCl2, 0.1 mg/mL BSA, 100 μM Na3VO4 and 0.5 mM DTT. • HTRF Detection Buffer: HTRF detection buffer contains 100 mM HEPES-pH 7.5, 100 mM NaCl, 0.1% BSA, 0.05% Tween-20, and 10 mM EDTA. • Serial Dilution of Compounds: Compounds were dissolved in 100% DMSO and serially diluted (3 fold, 10 point) in a polypropylene 96-well microtiter plate (drug plate). The final starting concentration of compounds in the p38a enzymatic assays was 1 μM. Columns 6 and 12 (HI controls and LO controls respectively) in the drug plate were reserved as controls and contained only DMSO. • Kinase Reaction: The p38α kinase reactions were carried out in a polypropylene 96-well black round bottom assay plate in total volume of 30 μL kinase reaction buffer. Appropriate concentration of purified and activated enzyme (recombinant human) was mixed with indicated concentration of ATP and 100 nM GST-ATF2-Avitag, in the presence or absence (HI control) of Compound. See table below for actual concentrations. In the absence of substrate, the background was measured as LO control. The reaction was allowed to incubate for 1 hour at RT. • Assay Reagent Concentrations: The final reagent concentrations were 1 nM p38α and 50 μM ATP. […] After 60 minutes incubation at room temperature, the assay plate was read in a Discovery Plate Reader. The wells were excited with coherent 320 nm light and the ratio of delayed ([…] post excitation) emissions at […] (native europium fluorescence) and 665 nm (europium fluorescence transferred to allophycocyanin—an index of substrate phosphorylation) was determined (Park et al, 1999). • Data Analysis: The proportion of substrate phosphorylated in the kinase reaction in the presence of compound compared with that phosphorylated in the presence of DMSO vehicle alone (HI control) was calculated using the formula: % control (POC)=(compound−average LO)/(average HI−average LO)*100. Data (consisting of POC and inhibitor concentration in μM) was fitted to a 4-parameter equation (y=A+((B−A)/(1+((x/C)AD))), where A is the minimum y (POC) value, B is the maximum y (POC), C is the x (compound concentration) at the point of inflection and D is the slope factor, using a Levenburg-Marquardt non-linear regression algorithm.
The inhibition constant (Ki) of the inhibitor was estimated from the IC50 (compound concentration at the point of inflection C) using the Cheng-Prussof equation: Ki=IC50/(1+S/Km), where S is the ATP substrate concentration, and Km is the Michaelis constant for ATP as determined experimentally. All results were expressed as the mean± the standard error of the mean. Data acquisition and non-linear regression algorithms were performed using Activity Base v5.2 and XL-fit software v4.1 respectively. All data was archived using Activity Base v5.2 software.

Chain of recombinant human p38α (Q16539 whole entry): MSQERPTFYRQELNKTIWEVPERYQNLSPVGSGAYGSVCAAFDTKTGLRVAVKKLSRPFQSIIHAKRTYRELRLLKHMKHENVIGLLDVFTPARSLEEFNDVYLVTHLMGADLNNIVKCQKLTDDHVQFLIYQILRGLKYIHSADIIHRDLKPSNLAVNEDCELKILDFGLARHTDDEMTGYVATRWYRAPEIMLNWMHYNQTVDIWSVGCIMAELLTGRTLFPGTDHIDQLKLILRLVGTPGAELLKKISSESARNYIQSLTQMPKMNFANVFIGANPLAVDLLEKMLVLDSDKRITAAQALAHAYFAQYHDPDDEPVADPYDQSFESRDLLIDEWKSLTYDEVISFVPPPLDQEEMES

CNc1noc2c(-c3cc4cnn(-c5c(F)cccc5F)c4n(C)c3=O)c(C)ccc12 [Example 5, 1-(2,6-difluorophenyl)-7-methyl-5-(6-methyl-3-(methylamino)-1,2-benzisoxazol-7-yl)-1,7-dihydro-6H-pyrazolo[3,4-b]pyridin-6-one]
IC50 [1]: ≤ 100 nM
IC50 [2]: 6.7 nM

Cc1ccc2c(NC3CC3)noc2c1-c1cc2cnn(-c3c(F)cccc3F)c2n(C)c1=O [Example 1, 5-(3-(cyclopropylamino)-6-methylbenzo[d]isoxazol-7-yl)-1-(2,6-difluorophenyl)-7-methyl-1H-pyrazolo[3,4-b]pyridin-6(7H)-one]
IC50 [1]: ≤ 100 nM
IC50 [2]: 8.1 nM

From patent US8435987B2, “Pyrazolo-pyridinone and pyrazolo-pyrazinone compounds as P38 modulators and methods of use thereof” (Amgen Inc., priority 2007, dated 2013)
